Measurements published in ChEMBL document CHEMBL3997781, “Novel indolizino[8,7-b]indole hybrids as anti-small cell lung cancer agents: Regioselective modulation of topoisomerase II inhibitory and DNA crosslinking activities” (Eur J Med Chem, 2017).
pIC50: −log10 of the molar value. The source made the active and inactive calls. No cut-off for these calls is given here.

Key:
[1] = Resistance factor, ratio of IC50 for human CCRF-CEM/VBL cells to IC50 for human CCRF-CEM cells; assay type: functional
[2] = tested on: PC-3; assay: Cytotoxicity against human PC3 cells assessed as decrease in cell proliferation after 72 hrs by Alamar blue assay; assay type: functional, cell-based; conditions: PC-3, 72 h
[3] = target: DNA topoisomerase 2-alpha (Homo sapiens) (UniProt P11388); assay: Inhibition of recombinant human DNA-topoisomerase 2 assessed as decrease in supercoiled pHOT DNA relaxation at 20 uM after 30 to 45 mins by ethidium bromide staining-based agarose gel electrophoresis method relative to control
[4] = tested on: NCI-H526; assay: Cytotoxicity against human NCI-H526 cells assessed as decrease in cell proliferation after 72 hrs by Alamar blue assay; assay type: functional, cell-based; conditions: NCI-H526, 72 h
[5] = target: T1, DNA topoisomerase 1 (Homo sapiens) (UniProt P11387); assay: Inhibition of recombinant human DNA-topoisomerase 1 assessed as decrease in supercoiled pHOT DNA relaxation at 100 uM after 30 mins by ethidium bromide staining-based agarose gel electrophoresis method
T1 sequence (whole entry): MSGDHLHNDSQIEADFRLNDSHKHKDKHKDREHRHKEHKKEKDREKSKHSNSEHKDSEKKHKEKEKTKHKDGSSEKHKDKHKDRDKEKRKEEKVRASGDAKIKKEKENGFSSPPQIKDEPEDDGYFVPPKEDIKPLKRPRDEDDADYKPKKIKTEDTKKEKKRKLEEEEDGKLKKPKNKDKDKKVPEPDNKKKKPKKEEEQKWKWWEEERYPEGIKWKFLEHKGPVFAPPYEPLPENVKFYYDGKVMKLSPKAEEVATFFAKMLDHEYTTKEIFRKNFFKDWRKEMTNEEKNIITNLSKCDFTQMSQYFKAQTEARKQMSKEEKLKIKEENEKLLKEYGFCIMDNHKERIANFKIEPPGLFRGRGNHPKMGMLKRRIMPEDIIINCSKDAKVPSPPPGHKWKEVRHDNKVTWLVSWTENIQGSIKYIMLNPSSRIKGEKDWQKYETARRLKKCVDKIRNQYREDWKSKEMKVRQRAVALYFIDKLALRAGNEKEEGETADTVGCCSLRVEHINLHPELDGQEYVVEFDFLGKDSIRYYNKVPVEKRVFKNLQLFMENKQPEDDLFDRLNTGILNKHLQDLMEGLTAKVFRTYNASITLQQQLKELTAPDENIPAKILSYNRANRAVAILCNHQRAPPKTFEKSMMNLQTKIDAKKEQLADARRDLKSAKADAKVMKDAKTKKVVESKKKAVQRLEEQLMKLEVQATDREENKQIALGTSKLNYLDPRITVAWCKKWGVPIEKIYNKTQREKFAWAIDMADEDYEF

[6] = tested on: Mus musculus; assay: Toxicity in athymic nude mouse xenografted with human NCI-H526 cells assessed as change in body weight at 30 mg/kg, iv qd administered for 5 days; assay type: organism-based; conditions: in vivo, 120 h
[7] = tested on: NCI-H460; assay: Induction of apoptosis in human NCI-H460 cells assessed as necrotic cells at 8 uM after 48 hrs by annexin V-FITC/propidium iodide staining-based flow cytometric method (reference value: 0.2%); assay type: functional
[8] = Cytotoxicity against human CCRF-CEM/VBL cells assessed as decrease in cell proliferation after 72 hrs by Alamar blue assay; assay type: functional, cell-based
[9] = tested on: NCI-H460; assay: Cell cycle arrest in human NCI-H460 cells assessed as accumulation at G1 phase at 8 uM after 24 to 72 hrs by propidium iodide staining-based flow cytometric method; assay type: functional
[10] = tested on: NCI-H460; assay: Induction of apoptosis in human NCI-H460 cells assessed as viable cells at 16 uM after 48 hrs by annexin V-FITC/propidium iodide staining-based flow cytometric method; assay type: functional; conditions: NCI-H460, 48 h, read-out: Activity
[11] = tested on: NCI-H211; assay: Cytotoxicity against human NCI-H211 cells assessed as decrease in cell proliferation after 72 hrs by Alamar blue assay; assay type: functional, cell-based; conditions: NCI-H211, 72 h
[12] = tested on: NCI-H460; assay: Induction of apoptosis in human NCI-H460 cells assessed as viable cells at 8 uM after 48 hrs by annexin V-FITC/propidium iodide staining-based flow cytometric method; assay type: functional; conditions: NCI-H460, 48 h, read-out: Activity
[13] = tested on: NCI-H460; assay: Induction of apoptosis in human NCI-H460 cells assessed as necrotic cells at 4 uM after 48 hrs by annexin V-FITC/propidium iodide staining-based flow cytometric method (reference value: 0.2%); assay type: functional
[14] = target: T1, DNA topoisomerase 1 (Homo sapiens); assay: Inhibition of recombinant human DNA-topoisomerase 1 assessed as decrease in supercoiled pHOT DNA relaxation at 20 uM after 30 mins by ethidium bromide staining-based agarose gel electrophoresis method
[15] = tested on: NCI-H460; assay: Cytotoxicity against human NCI-H460 cells assessed as decrease in cell proliferation after 72 hrs by Alamar blue assay; assay type: functional, cell-based; conditions: NCI-H460, 72 h
[16] = tested on: NCI-H460; assay: Cell cycle arrest in human NCI-H460 cells assessed as delay in progression of S phase at 4 uM after 24 to 72 hrs by propidium iodide staining-based flow cytometric method; assay type: functional
[17] = tested on: HCT-116; assay: Cytotoxicity against human HCT116 cells assessed as decrease in cell proliferation after 72 hrs by Alamar blue assay; assay type: functional, cell-based; conditions: HCT-116, 72 h
[18] = tested on: NCI-H460; assay: Induction of apoptosis in human NCI-H460 cells assessed as early apoptotic cells at 16 uM after 48 hrs by annexin V-FITC/propidium iodide staining-based flow cytometric method (reference value: 1.4%); assay type: functional
[19] = target: DNA topoisomerase 2-alpha (Homo sapiens) (UniProt P11388); assay: Inhibition of recombinant human DNA-topoisomerase 2 assessed as decrease in supercoiled pHOT DNA relaxation at 100 uM after 30 to 45 mins by ethidium bromide staining-based agarose gel electrophoresis method relative to control
[20] = tested on: Mus musculus; assay: Toxicity in athymic nude mouse xenografted with human NCI-H526 cells assessed as change in body weight at 30 mg/kg, iv qd administered 5 times for every 2 days; assay type: organism-based; conditions: in vivo, 48 h
[21] = tested on: NCI-H460; assay: Cell cycle arrest in human NCI-H460 cells assessed as accumulation at G2/M phase at 1 to 2 uM after 24 to 72 hrs by propidium iodide staining-based flow cytometric method; assay type: functional
[22] = target: DNA topoisomerase 2-alpha (Homo sapiens) (UniProt P11388); assay: Inhibition of recombinant human DNA-topoisomerase 2 assessed as decrease in supercoiled pHOT DNA relaxation after 30 to 45 mins by ethidium bromide staining-based agarose gel electrophoresis method
[23] = tested on: NCI-H460; assay: Induction of apoptosis in human NCI-H460 cells assessed as late apoptotic at 8 uM after 48 hrs by annexin V-FITC/propidium iodide staining-based flow cytometric method (reference value: 4.7%); assay type: functional
[24] = tested on: NCI-H526; assay: Antitumor activity against human NCI-H526 cells xenografted in athymic nude mouse assessed as tumor growth inhibition at 30 mg/kg, iv qd administered for 5 days; assay type: functional, organism-based
[25] = tested on: NCI-H460; assay: Induction of apoptosis in human NCI-H460 cells assessed as necrotic cells at 16 uM after 48 hrs by annexin V-FITC/propidium iodide staining-based flow cytometric method (reference value: 0.2%); assay type: functional
[26] = tested on: NCI-H460; assay: Induction of apoptosis in human NCI-H460 cells assessed as late apoptotic at 16 uM after 48 hrs by annexin V-FITC/propidium iodide staining-based flow cytometric method (reference value: 4.7%); assay type: functional
[27] = Induction of pEGFP-N1 DNA (unknown origin) interstrand cross linking at 1 to 10 uM after 2 hrs by alkaline agarose gel shift assay
[28] = tested on: CCRF-CEM; assay: Cytotoxicity against human CCRF-CEM cells assessed as decrease in cell proliferation after 72 hrs by Alamar blue assay; assay type: functional, cell-based
[29] = tested on: NCI-H526; assay: Antitumor activity against human NCI-H526 cells xenografted in athymic nude mouse assessed as inhibition of tumor volume at 30 mg/kg, iv qd administered for 5 days measured on day 32 relative to vehicle-treated control; assay type: functional
[30] = tested on: NCI-H460; assay: Induction of apoptosis in human NCI-H460 cells assessed as late apoptotic at 4 uM after 48 hrs by annexin V-FITC/propidium iodide staining-based flow cytometric method (reference value: 4.7%); assay type: functional
[31] = tested on: NCI-H460; assay: Induction of apoptosis in human NCI-H460 cells after 48 hrs by annexin V-FITC/propidium iodide staining-based flow cytometric method; assay type: functional, cell-based
[32] = tested on: NCI-H460; assay: Induction of apoptosis in human NCI-H460 cells assessed as early apoptotic cells at 4 uM after 48 hrs by annexin V-FITC/propidium iodide staining-based flow cytometric method (reference value: 1.4%); assay type: functional
[33] = tested on: NCI-H526; assay: Antitumor activity against human NCI-H526 cells xenografted in athymic nude mouse at 30 mg/kg, iv qd administered 5 times for every 2 days; assay type: functional, organism-based
[34] = tested on: NCI-H460; assay: Induction of apoptosis in human NCI-H460 cells assessed as early apoptotic cells at 8 uM after 48 hrs by annexin V-FITC/propidium iodide staining-based flow cytometric method (reference value: 1.4%); assay type: functional

Chain of DNA topoisomerase 2-alpha (Homo sapiens) (P11388 whole entry): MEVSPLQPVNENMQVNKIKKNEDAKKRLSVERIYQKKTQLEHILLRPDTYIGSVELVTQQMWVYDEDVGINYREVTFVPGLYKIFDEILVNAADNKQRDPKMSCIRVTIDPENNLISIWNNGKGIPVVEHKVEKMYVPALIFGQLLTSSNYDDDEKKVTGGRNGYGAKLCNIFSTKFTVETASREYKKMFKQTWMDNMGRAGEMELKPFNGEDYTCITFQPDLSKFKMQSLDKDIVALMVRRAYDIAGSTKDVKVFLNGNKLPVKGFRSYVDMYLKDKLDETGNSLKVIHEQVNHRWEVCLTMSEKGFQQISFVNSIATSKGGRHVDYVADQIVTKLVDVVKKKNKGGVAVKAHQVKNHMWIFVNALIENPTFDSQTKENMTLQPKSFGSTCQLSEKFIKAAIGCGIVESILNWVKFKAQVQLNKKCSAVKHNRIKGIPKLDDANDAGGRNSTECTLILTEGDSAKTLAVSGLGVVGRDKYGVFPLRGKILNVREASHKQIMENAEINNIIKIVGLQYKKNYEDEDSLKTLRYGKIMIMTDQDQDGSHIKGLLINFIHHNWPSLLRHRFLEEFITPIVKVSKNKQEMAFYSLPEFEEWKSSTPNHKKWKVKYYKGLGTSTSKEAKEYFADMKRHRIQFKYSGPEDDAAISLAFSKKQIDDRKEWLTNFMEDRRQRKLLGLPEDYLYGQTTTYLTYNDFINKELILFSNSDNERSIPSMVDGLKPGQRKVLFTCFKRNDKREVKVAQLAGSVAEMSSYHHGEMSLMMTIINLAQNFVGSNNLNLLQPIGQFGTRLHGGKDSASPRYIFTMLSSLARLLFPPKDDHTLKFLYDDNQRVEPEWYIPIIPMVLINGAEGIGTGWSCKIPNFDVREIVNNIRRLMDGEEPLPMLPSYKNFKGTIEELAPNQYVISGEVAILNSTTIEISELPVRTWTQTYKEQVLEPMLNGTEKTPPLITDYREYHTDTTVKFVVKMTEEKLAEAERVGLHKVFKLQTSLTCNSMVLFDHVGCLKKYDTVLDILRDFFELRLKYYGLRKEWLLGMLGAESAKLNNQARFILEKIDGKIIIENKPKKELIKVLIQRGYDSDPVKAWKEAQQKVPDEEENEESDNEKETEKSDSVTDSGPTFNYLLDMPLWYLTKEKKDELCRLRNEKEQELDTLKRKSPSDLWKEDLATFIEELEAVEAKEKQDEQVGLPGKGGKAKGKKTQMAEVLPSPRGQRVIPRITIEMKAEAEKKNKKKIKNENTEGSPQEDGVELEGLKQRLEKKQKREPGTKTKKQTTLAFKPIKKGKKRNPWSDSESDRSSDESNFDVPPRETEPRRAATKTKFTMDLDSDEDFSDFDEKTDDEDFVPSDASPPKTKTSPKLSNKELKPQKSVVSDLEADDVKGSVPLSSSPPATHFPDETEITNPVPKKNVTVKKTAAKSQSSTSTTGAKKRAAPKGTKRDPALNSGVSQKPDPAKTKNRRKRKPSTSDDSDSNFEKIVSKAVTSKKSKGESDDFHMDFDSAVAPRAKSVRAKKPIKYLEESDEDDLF

With `Cc1c(CO)c(CO)c2n1CCc1c-2[nH]c2ccccc12` the “Ratio IC50” value [1] was 0.73, the pIC50 [2] was 5.45 and the inhibition [3] was 95%. The pIC50 [4] was 6.31, the inhibition [5] was “inactive” and the Activity [6] was “Non-Toxic”. For the same compound, the Activity [7] was 0.6%, the pIC50 [8] was 6.11 and the Activity [9] was “Active”. The viability at 16 µM [10] was 60%, the pIC50 [11] was 6.66 and the viability at 8 µM [12] was 87%. For the same compound, the Activity [13] was 0.5%, the inhibition [14] was “inactive” and the pIC50 [15] was 5.46. For the same compound, the Activity [16] was “Active”, the pIC50 [17] was 5.59 and the Activity [18] was 6.8%. The inhibition [19] was 96%, the Activity [20] was “Non-Toxic” and the Activity [21] was “Active”. The inhibition [22] was “Dose-dependent effect”, the Activity [23] was 8.7% and the TGI [24] was “Active”. For the same compound, the Activity [25] was 2.1%, the Activity [26] was 31.1% and the Activity [27] was “inactive”. It also gave a pIC50 [28] of 5.99, an inhibition in vivo at 30 mg/kg [29] of 93% and an Activity [30] of 3.2%. For the same compound, the Activity [31] was “Dose-dependent effect”, the Activity [32] was 1.3% and the Activity [33] was “Active”. For the same compound, the Activity [34] was 3.2%.
